The experiment has as its target T1, human α7 nAChR (Homo sapiens, UniProt P36544).
T1 construct: expressed in transfected cells
Description: Evaluation of PAM activity with human α7 nACh receptor stably expressing cells (aequorin luminescence, FDSS7000). Conditions: for activity at 10 µM: read-out: α7PAM (%) @10 μM; for activity at 1 µM: 1 μM test compound (values marked *, footnote of Table 25), read-out: α7PAM (%) @1 μM; for PAM activity for α7 nAChR (in words): comparison across Tables 18 to 25. In kind it is cell-based. The protocol:
Evaluation of PAM activity with human α7 nACh receptor stably expressing cells
(1) Human α7 nAChR stably expressing cells
Human α7 nAChR stably expressing cells were generated and cultured.
Thus, the cells were subcultured.
Seven days after subculturing, the cells were treated with TrypLE Express to collect them when they were about 80% confluent.
On the next day after seeding, Viviren (cat#E649X, Promega, Madison, Wis., USA) was added to the medium so that the final concentration could be 4 μM (15 μL/well). The plates were centrifuged and then placed in the dark for 4 hours at room temperature.
(2) Preparation of the Test Samples
Each of the test compounds was dissolved in DMSO to prepare each test sample at a concentration of 1000-fold the final concentration. To the solution was added Hanks/20 mM HEPES/0.2% BSA (cat#A3803, Sigma, St. Louis, Mo., USA), and the concentration was adjusted to 6-fold the final concentration.
(3) Evaluation of PAM Activity
FDSS7000 (Hamamatsu Photonics) was used to detect the luminescence signal evoked by α7 nAChR stimulation. The cells and a luminescent substrate were put on a plate, and the test sample was added thereto. […] The ratio of the RLU (Max-Min) of the test-compound-containing wells to that of the control wells was defined as PAM activity.

The mark [1] stands for this setting: 10 μM test compound, ACh at EC20, ratio of RLU (Max-Min) to control wells.
The mark [2] stands for this setting: ACh at EC20, ratio of RLU (Max-Min) to control wells.

T1 sequence (P36544 23-502): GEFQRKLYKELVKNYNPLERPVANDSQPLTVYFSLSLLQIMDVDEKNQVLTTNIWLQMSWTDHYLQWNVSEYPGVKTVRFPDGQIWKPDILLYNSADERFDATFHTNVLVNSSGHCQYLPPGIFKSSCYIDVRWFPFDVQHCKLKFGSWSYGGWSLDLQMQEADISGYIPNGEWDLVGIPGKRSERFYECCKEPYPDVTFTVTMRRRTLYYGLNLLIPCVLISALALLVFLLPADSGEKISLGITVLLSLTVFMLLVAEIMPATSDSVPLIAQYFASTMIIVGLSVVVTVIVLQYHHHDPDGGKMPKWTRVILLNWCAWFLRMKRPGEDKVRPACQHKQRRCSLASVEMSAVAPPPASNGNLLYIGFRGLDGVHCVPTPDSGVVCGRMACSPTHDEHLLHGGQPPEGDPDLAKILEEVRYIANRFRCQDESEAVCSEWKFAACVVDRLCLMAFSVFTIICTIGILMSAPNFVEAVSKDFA

As for `O=C(NC1CC2CCC1C2)N1CCC(n2cnc(-c3cccc(F)c3)c2)CC1` (stereo not shown) [Example 2, N-(Bicyclo[2.2.1]hept-2-yl)-4-[4-(3-fluorophenyl)-1H-imidazol-1-yl]piperidine-1-carboxamide], the activity at 10 µM under setting [1] stood at 117%.

On to `O=C(N[C@H]1CC[C@H](C(F)(F)F)CC1)N1CCC(n2cnc(-c3cccc(F)c3)c2)CC1` [Example 3, 4-[4-(3-Fluorophenyl)-1H-imidazol-1-yl]-N-[trans-4-(trifluoromethyl)cyclohexyl]piperidine-1-carboxamide], for which the activity at 10 µM under setting [1] worked out at 493%. As for `CO[C@H]1CC[C@H](NC(=O)N2CCC(n3cnc(-c4ccc(C(F)(F)F)cc4)c3)CC2)CC1` [Example 4, N-(trans-4-Methoxycyclohexyl)-4-{4-[4-(trifluoromethyl)phenyl]-1H-imidazol-1-yl}piperidine-1-carboxamide], the activity at 10 µM under setting [1] came out at 220%. Same read-out and setting: the value for `O=C(C1CCC(F)(F)CC1)N1CCC(n2cnc(-c3ccccc3)c2)CC1` [Example 6, [4-(4-Phenyl-1H-imidazol-1-yl)piperidin-1-yl](4,4-difluorocyclohexyl)methanone] was 292%; that for `N#Cc1c(-c2ccccc2)ncn1C1CCN(C(=O)C2CCC(F)(F)CC2)CC1` [Example 7, 1-{1-[(4,4-Difluorocyclohexyl)carbonyl]piperidin-4-yl}-4-phenyl-1H-imidazole-5-carbonitrile] was 644%. For the compound `CC(C)(F)C(=O)N[C@H]1CC[C@@H](n2cnc(-c3ccc(F)cc3)c2)CC1` [Example 8, 2-Fluoro-N-{cis-4-[4-(4-fluorophenyl)-1H-imidazol-1-yl]cyclohexyl}-2-methylpropanamide], under setting [1], the “α7PAM (%) @10 μM” value is given as 476%. Consider `O=C(NC1CCCCC1)[C@H]1CC[C@@H](n2cnc(-c3ccccc3)c2)CC1` [Example 9, cis-N-Cyclohexyl-4-(4-phenyl-1H-imidazol-1-yl)cyclohexanecarboxamide], for which, under setting [1], the activity at 10 µM came to 121%. Still for that read-out and setting: for `O=C(NC1CCCCC1)N1CCC(n2cnc(-c3c(F)cccc3F)c2)CC1` [Example 10] the value was 597%. `O=C(NCC1CCCCC1)N1CCC(n2cnc(-c3c(F)cccc3F)c2)CC1` [Example 11]: the activity at 1 µM under setting [2] is 116%. In the case of `O=C(Nc1ccccc1F)N1CCC(n2cnc(-c3c(F)cccc3F)c2)CC1` [Example 12], the activity at 10 µM under setting [1] was 283%. `Cc1ccccc1-c1cn(C2CCN(C(=O)Nc3ccccc3F)CC2)cn1` [Example 13]: the activity at 10 µM under setting [1] amounted to 161%. In the case of `Cc1ccccc1-c1cn(C2CCN(C(=O)NC3CCCCC3)CC2)cn1` [Example 14], the activity at 10 µM under setting [1] worked out at 351%.

As to `O=C(NC1CCCCC1)N1CCC(n2cnc(-c3ccc(F)cc3)c2)CC1` [Example 15], under setting [1], the activity at 10 µM came out at 596%. Turning to `Cc1ccc(-c2cn(C3CCN(C(=O)NC4CCCCC4)CC3)cn2)cc1` [Example 18], the “PAM activity for α7 nAChR (in words)” value was “stronger PAM activity than others”.

For `O=C(NC1CCCCC1)N1CCC(n2cnc(-c3ccc(Cl)cc3)c2)CC1` [Example 20], the activity at 10 µM under setting [1] stood at 656%. Still for that read-out and setting: the value for `O=C(Nc1ccccc1F)N1CCC(n2cnc(-c3ccc(Cl)cc3)c2)CC1` [Example 21] was 291%. In the case of `O=C(NC1CCC(F)(F)CC1)N1CCC(n2cnc(-c3ccc(Cl)cc3)c2)CC1` [Example 22], the “PAM activity for α7 nAChR (in words)” value is listed as “stronger PAM activity than others”. Turning to `O=C(NC1CCCCC1)N1CCC(n2cnc(-c3ccc(C(F)(F)F)cc3)c2)CC1` [Example 23], the activity at 10 µM under setting [1] was 209%. On the same count and under the same terms, for `O=C(Nc1ccccc1F)N1CCC(n2cnc(-c3ccc(C(F)(F)F)cc3)c2)CC1` [Example 24] the value was 228%. In the case of `O=C(NC1CCC(F)(F)CC1)N1CCC(n2cnc(-c3ccc(C(F)(F)F)cc3)c2)CC1` [Example 25], the “PAM activity for α7 nAChR (in words)” value was “stronger PAM activity than others”. Consider `O=C(NC1CCCCC1)N1CCC(n2cnc(-c3ccc(F)c(F)c3)c2)CC1` [Example 26], for which the activity at 10 µM under setting [1] came out at 563%. `O=C(Nc1ccccc1F)N1CCC(n2cnc(-c3ccc(F)c(F)c3)c2)CC1` [Example 27]: under setting [1], the activity at 10 µM turned out to be 139%. On the same count and under the same terms, for `O=C(NC1CCC(F)(F)CC1)N1CCC(n2cnc(-c3ccc(F)c(F)c3)c2)CC1` [Example 28] the value was 798%; for `O=C(NC1CCOCC1)N1CCC(n2cnc(-c3ccc(C(F)(F)F)cc3)c2)CC1` [Example 29], 378%; for `O=C(NC1CCCC1)N1CCC(n2cnc(-c3cccc(F)c3)c2)CC1` [Example 30], 319%. The same measure, in the same setting: the value for `CC1(NC(=O)N2CCC(n3cnc(-c4cccc(F)c4)c3)CC2)CCC1` [Example 31] was 300%; that for `O=C(NC1CCC(F)(F)CC1)N1CCC(n2cnc(-c3cccc(F)c3)c2)CC1` [Example 32] was 993%. In the case of `COC1CCC(NC(=O)N2CCC(n3cnc(-c4ccc(F)cc4)c3)CC2)CC1` (stereo not shown) [Example 33], the activity at 1 µM under setting [2] was 126%. Consider `O=C(NC1CCCCC1)N1CCC(n2cnc(-c3cc(F)cc(F)c3)c2)CC1` [Example 34], for which, under setting [1], the activity at 10 µM came to 596%. The same measure, in the same setting: the value for `O=C(NC1CCC(F)(F)CC1)N1CCC(n2cnc(-c3cc(F)cc(F)c3)c2)CC1` [Example 35] was 878%. Same read-out and setting: the value for `O=C(NC1CCCC1)N1CCC(n2cnc(-c3ccccc3)c2)CC1` [Example 36] was 193%; that for `O=C(NC1CCCCC1)N1CCC(n2cnc(-c3ccccc3)c2)CC1` [Example 37] was 366%; that for `O=C(NC1CC2CCC1C2)N1CCC(n2cnc(-c3ccccc3)c2)CC1` (stereo not shown) [Example 38] was 311%. On the same count and under the same terms, for `O=C(NC1CCC(F)(F)CC1)N1CCC(n2cnc(-c3ccccc3)c2)CC1` [Example 39] the value was 823%; for `COC1CCC(NC(=O)N2CCC(n3cnc(-c4ccccc4)c3)CC2)CC1` (stereo not shown) [Example 40], 129%; for `O=C(NC1CCCCC1)N1CCC(n2cnc(-c3ccc4c(c3)CCO4)c2)CC1` [Example 43], 250%. In the case of `O=C(NC1CCC(F)(F)CC1)N1CCC(n2cnc(-c3ccc4c(c3)CCO4)c2)CC1` [Example 44], the activity at 10 µM under setting [1] was found to be 880%. Still for that read-out and setting: the value for `O=C(NC1CCCCCC1)N1CCC(n2cnc(-c3cccc(F)c3)c2)CC1` [Example 45] was 260%. For `O=C(NC1CCC2(CC1)CC2)N1CCC(n2cnc(-c3cccc(F)c3)c2)CC1` [Example 46], under setting [2], the activity at 1 µM is 104%.

On to `O=C(NC1CCCCCC1)N1CCC(n2cnc(-c3ccccc3)c2)CC1` [Example 51], for which, under setting [1], the activity at 10 µM is 520%. The same measure, in the same setting: for `COC1CCC(NC(=O)N2CCC(n3cnc(-c4ccc(C(F)(F)F)cc4)c3)CC2)CC1` (stereo not shown) [Example 52] the value was 205%; for `O=C(NC1CCCCC1)N1CCC(n2cnc(-c3cccc(OC(F)F)c3)c2)CC1` [Example 53], 256%. Turning to `O=C(NC1CCCCC1)N1CCC(n2cnc(-c3ccc(OC(F)F)cc3)c2)CC1` [Example 54], the activity at 10 µM under setting [1] is 371%. The same measure, in the same setting: for `CCOc1ccc(-c2cn(C3CCN(C(=O)NC4CCCCC4)CC3)cn2)cc1` [Example 55] the value was 403%; for `O=C(NC1CC2CCC1C2)N1CCC(n2cnc(-c3cccc(OC(F)F)c3)c2)CC1` (stereo not shown) [Example 56], 169%; for `O=C(NC1CC2CCC1C2)N1CCC(n2cnc(-c3ccc(OC(F)F)cc3)c2)CC1` (stereo not shown) [Example 57], 302%. On the same count and under the same terms, the value for `CCOc1ccc(-c2cn(C3CCN(C(=O)NC4CC5CCC4C5)CC3)cn2)cc1` (stereo not shown) [Example 58] was 318%. Take `O=C(NC1CCC(F)(F)CC1)N1CCC(n2cnc(-c3cccc(OC(F)F)c3)c2)CC1` [Example 59]: under setting [1], the activity at 10 µM is 707%. `O=C(NC1CCC(F)(F)CC1)N1CCC(n2cnc(-c3ccc(OC(F)F)cc3)c2)CC1` [Example 60]: the activity at 10 µM under setting [1] was found to be 616%. Still for that read-out and setting: for `CCOc1ccc(-c2cn(C3CCN(C(=O)NC4CCC(F)(F)CC4)CC3)cn2)cc1` [Example 61] the value was 915%; for `CC(C)(C)NC(=O)N1CCC(n2cnc(-c3ccc(F)cc3)c2)CC1` [Example 63], 160%. Same read-out and setting: the value for `CC(C)(C)NC(=O)N1CCC(n2cnc(-c3cccc(F)c3)c2)CC1` [Example 64] was 149%; that for `CC(C)(C)NC(=O)N1CCC(n2cnc(-c3ccccc3F)c2)CC1` [Example 67] was 317%; that for `COc1cccc(-c2cn(C3CCN(C(=O)NC(C)(C)C)CC3)cn2)c1` [Example 70] was 158%. In the case of `COc1cccc(-c2cn(C3CCN(C(=O)NC4CCCCC4)CC3)cn2)c1` [Example 71], the activity at 10 µM under setting [1] worked out at 422%. For the compound `COc1cc(-c2cn(C3CCN(C(=O)NC4CCCCC4)CC3)cn2)ccc1Cl` [Example 72], the “PAM activity for α7 nAChR (in words)” value is on record as “stronger PAM activity than others”. The same measure, in the same setting: for `O=C(NC1CCCCC1)N1CCC(n2cnc(-c3ccccc3)c2Cl)CC1` [Example 73] the value was “stronger PAM activity than others”. In the case of `COc1ccc(-c2ncn(C3CCN(C(=O)NC4CCCC4)CC3)c2Cl)cc1` [Example 74], under setting [1], the activity at 10 µM was found to be 779%.

The values are drawn from US20150259344A1, “IMIDAZOLE DERIVATIVE” (DAINIPPON SUMITOMO PHARMA CO., LTD., priority 2012, published 2015).
